Data reported in US20240287062A1, “NAPHTHYRIDONE COMPOUNDS FOR INHIBITION OF RAF KINASES AND/OR BCR-ABL TYROSINE KINASES” (Enliven Inc., priority 2021, published 2024).
Read-outs that look alike come from different tables or passages of the source.

How the values were obtained:
Format in all cases: cell-based
A375 (BRAF V600E) = assay: Cell viability assay (CellTiter Glo)
Experimental: (§1) Cell viability was measured in the following MAPK pathway mutant cancer cell lines: A375 (BRAF V600E), HepG2 (NRAS Q61L), SK-MEL-30 (NRAS Q61K), and OCI-AML-2 (MBNL1-CRAF fusion). Cell viability was also measured in K562 cells.
(§2) A375, HepG2, SK-MEL-30 and OCI-AML-2 cells were grown in the appropriate growth medium as described in Table B2 below, and harvested at 50-80% confluence. Cells were counted and seeded at their appropriate density (see Table B1) in a 384-well plate (Corning 3570). A375, HepG2 and SK-MEL-30 were allowed to adhere overnight prior to treatment and the OCI-AML-2 were treated immediately for the indicated drug treatment times (Table 6).
(§3) Table 6 provides the growth media, number of cells seeded per well and drug treatment times for the each cell line. K562 cells were grown as described in Example B1 above.
(§4) Compounds were dissolved in DMSO and serially diluted. Serially-diluted compound or a DMSO only control (high control, “HC”) was added to the plated cells in each well. Compounds were tested at concentrations of about 10 μM to 0.51 nM, using three-fold dilutions. The final proportion of DMSO never exceeded 0.1%.
(§5) Plates were placed in a 37° C., […] incubator for the indicated treatment times (Table B1). Plates were then removed from the incubator and equilibrated for 15 minutes at room temperature. 40 μl of CellTiter Glo reagent (Promega) was added to measure the relative level of metabolically active cells by quantifying intracellular ATP concentrations. Plates were incubated for 30 minutes at room temperature, and luminescence was measured. Percent viability was normalized to a vehicle control only using the following formula: 0 viability=100×(LumSample−LumLC)/(LumHC−LumLC). Graphical curves were fitted using a nonlinear regression model with a sigmoidal dose response.

HepG2 (NRAS Q61L) = assay: Cell viability assay (CellTiter Glo); details: HepG2, 750 cells per well, read-out: BRAF Cytotoxicity (IC50, nM) HEPG2
Experimental: as §1, §2, §3, §4, §5

[1] = system: OCI-AML-2 (MBNL1-CRAF fusion); assay: Cell viability assay (CellTiter Glo); details: OCI-AML-2, 1000 cells per well, read-out: BRAF Cytotoxicity (IC50, nM) OCI-AML-2
Experimental: as §1, §2, §3, §4, §5

SK-MEL-30 (NRAS Q61K) = assay: Cell viability assay (CellTiter Glo); details: SK-MEL-30, 750 cells per well, read-out: BRAF Cytotoxicity (IC50, nM) SK-MEL-30
Experimental: as §1, §2, §3, §4, §5

K562 cells = assay: Cell viability assay (CellTiter Glo); details: K562 cells grown as in Example B1, read-out: BRAF Cytotoxicity (IC50, nM) K562
Experimental: K562 cells, cultured in Iscove's Modified Dulbecco's Media (IMDM) supplemented with 10% FBS, were harvested at 50-80% confluency and plated at 2,000 cells per well in 384-well tissue culture plates. A subset of wells contained media only (low control, LC). Compounds were serially diluted in DMSO. 40 nL of compound or DMSO only (high control, HC) were added to each well using an Echo 550 liquid handler (Labcyte). The plates were placed in a 37° C. incubator with 5% CO2 for 72 hours. Cell viability was measured using a CellTiter-Glo luminescent cell viability assay (Promega), which allows for relative quantification of metabolically active cells by luminescence-based measurements of intracellular ATP concentrations. Briefly, plates were removed from the incubator and equilibrated for 15 minutes at room temperature prior to the addition of 40 μL of CellTiter-Glo reagent. Plates were then incubated for 30 minutes at room temperature. Luminescence was measured using an EnSpire plate reader (Perkin Elmer). As noted above, luminescence values from wells with DMSO only or media without cells were used as high and low controls (HC and LC), respectively. Normalized percent viability was calculated as follows: percent viability=100×(LumSample−LumLC)/(LumHC−LumLC). IC50 values were calculated using the XLFit software.
as §1, §3, §4, §5

[2] = system: phosphorylated ERK (pERK); assay: Detection of phosphorylated ERK (pERK), AlphaLISA in A375 cells; details: four hours incubation, inhibition of ERK phosphorylation, read-out: PERK ELISA (IC50)
Experimental: A375 cells were counted and seeded at 10,000 cells/well in 384 well plates (Corning 3764) and allowed to adhere overnight.
Compounds were dissolved and serially diluted in DMSO. The compounds were then added, mixed, and incubated for four hours at 37° C., 5% CO2. Compounds were added using four-fold dilutions at final concentrations ranging from 10 μM to 0.01 nM. DMSO only and 10 uM staurosporine were added as high and low controls.
Following the four-hour incubation with compounds, cell lysates were prepared and AlphaLISA assay measuring phosphorylated ERK was performed. Media was removed using the Apricot Designs pipettor. Lysis buffer was made from 1× AlphaLISA SureFire Assay Kit (AlphaLISA SureFire Ultra pERK 12 (Thr202/Tyr204) ALSU-PERK-A50K) lysis buffer with protease and phosphatase inhibitors. Cells were lysed by adding 10 uL to all the wells and mixed for 40 minutes on a plate shaker. 10 uL cell lysate was transferred to a new Optiplate (PerkinElmer 6007290) and incubated with 5 uL 1× acceptor mix for 2 hours in the dark. 5 uL of 1× donor mix was added to all wells and mixed by shaking followed by overnight incubation in the dark.
pERK AlphaLISA signal was read on the Envision using standard AlphaLISA settings. Percent inhibition of ERK phosphorylation was calculated by % Inhibition=100×(LumHC−LumSample)/(LumHC−LumLC). The low and high controls (LC/HC) are generated from lysate from wells with cells treated with DMSO or […] Staurosporine (BioAustralis, cat #BIA-S1086), […]. IC50 values were calculated by fitting the Curve using XLfit (v5.3.1.3), equation 201: Y=Bottom+(Top−Bottom)/(1+10^((Log IC50−X)*HillSlope)).

[3] = Homo sapiens, A-375, 72 h, A375, 250 cells seeded per well, read-out: BRAF Cytotoxicity (IC50, nM) A375 (250 cells)
[4] = Homo sapiens, A-375, 72 h, A375, 1000 cells seeded per well, read-out: BRAF Cytotoxicity (IC50, nM) A375 (1000 cells)

Structure (SMILES) | IC50 (A375 (BRAF V600E); [3]) [nM] | IC50 (HepG2 (NRAS Q61L); Homo sapiens, HepG2, 120 h) [nM] | IC50 ([1]; Homo sapiens, OCI-AML2, 72 h) [nM] | IC50 (SK-MEL-30 (NRAS Q61K); Homo sapiens, SK-MEL-30, 120 h) [nM] | IC50 (K562 cells; Homo sapiens) [nM] | IC50 [2] [nM] | IC50 (A375 (BRAF V600E); A375, 1000 cells seeded per well, 72 hours, read-out: BRAF Cytotoxicity (IC50, nM) A375 (1000 cells)) [nM] | IC50 (HepG2 (NRAS Q61L); 120 hours) [nM] | IC50 ([1]; 72 hours) [nM] | IC50 (SK-MEL-30 (NRAS Q61K); 120 hours) [nM] | IC50 (K562 cells) [nM] | IC50 (A375 (BRAF V600E); [4]) [nM] | IC50 ([2]; Homo sapiens, A-375, 4 h) [nM]
CCCC(O)c1cc(C)c(-c2cc3cnc(NC(C)=O)cc3n(C)c2=O)cn1 (single isomer, unassigned) [Example S67, Enantiomer A, N-(3-{6-[1-hydroxybutyl]-4-methylpyridin-3-yl}-1-methyl-2-oxo-1,6-naphthyridin-7-yl)acetamide] | 215 | 252 | 1390 | 974 | 9480 | 7.23 | – | – | – | – | – | – | –
CCC(O)c1cc(C)c(-c2cc3cnc(NC(=O)[C@@H]4C[C@@H]4F)cc3n(C)c2=O)cn1 (single isomer, unassigned; isomer a) [Example S40, Isomer A] | – | – | – | – | – | 47.4 | 492 | 211 | 496 | 446 | 1230 | – | –
CC[C@H](O)c1cc(C)c(-c2cc3cnc(NC(=O)C4CC4)cc3n(C)c2=O)cn1 [Compound 69, N-(3-[6-[(1S)-1-hydroxypropyl]-4-methylpyridin-3-yl]-1-methyl-2-oxo-1,6-naphthyridin-7-yl)cyclopropanecarboxamide] | 372 | 107 | 485 | 517 | 496 | – | – | – | – | – | – | 354 | 43.1
CC[C@H](O)c1cc(C)c(-c2cc3cnc(NC(=O)[C@H]4C[C@H]4F)cc3n(C)c2=O)cn1 [Compound 108, (1R,2R)-2-fluoro-N-(3-(6-((S)-1-hydroxypropyl)-4-methylpyridin-3-yl)-1-methyl-2-oxo-1,2-dihydro-1,6-naphthyridin-7-yl)cyclopropane-1-carboxamide] | 422 | 88.7 | 309 | 311 | 1980 | – | – | – | – | – | – | 308 | 17.4
CCCC(=O)c1cc(C)c(-c2cc3cnc(NC(=O)[C@@H]4C[C@@H]4F)cc3n(C)c2=O)cn1 [Compound 152, (1S,2S)—N-(3-(6-butyryl-4-methylpyridin-3-yl)-1-methyl-2-oxo-1,2-dihydro-1,6-naphthyridin-7-yl)-2-fluorocyclopropane-1-carboxamide] | 116 | 257 | 412 | 585 | 534 | – | – | – | – | – | – | – | 8.99
